The nature of data set [1]: Cytotoxicity against mouse BV-2 cells assessed as cell viability by MTT assay. Type of data set: cell-based. Further details: concentration or dose not given beside the values. To be noted: read-out: Activity.
Data set [2] concerns BV-2. The data set can be described thus: Anti-neuroinflammatory activity in mouse BV-2 cells assessed as inhibition of LPS-induced NO production incubated for 48 hrs by Griess reagent based assay. The conditions noted are these: BV-2, 48 h. Type of data set: functional, cell-based. In general terms: The Griess reaction detects nitrite, a stable product of nitric oxide.

Experimental findings from ChEMBL document CHEMBL4831537, “Biotransformation of Betulonic Acid by the Fungus Rhizopus arrhizus CGMCC 3.868 and Antineuroinflammatory Activity of the Biotransformation Products” (J Nat Prod, 2021) are described below.

What is called IC50 is the concentration needed to halve the response being measured. Turning to `CC(=O)[C@@H]1CC[C@]2(C(=O)O)CC[C@]3(C)[C@H](CC[C@@H]4[C@@]5(C)CCC(=O)C(C)(C)[C@@H]5C[C@H](O)[C@]43C)[C@@H]12`, the viability in data set [1] turned out to be 106%. For the same molecule, the IC50 in data set [2] was determined as 53.9 µM.

`C=C(C)[C@@H]1CC[C@]2(C(=O)O)CC[C@]3(C)[C@H](CC[C@@H]4[C@@]5(C)CCC(=O)C(C)(C)[C@@H]5C[C@H](O)[C@]43C)[C@@H]12`: the viability in data set [1] is 99.2%. Besides, in data set [2], the IC50 was 34.6 µM.

In the case of `C=C(C)[C@@H]1CC[C@]2(C(=O)O)CC[C@]3(C)[C@H](CC[C@@H]4[C@@]5(C)CCC(=O)[C@@](C)(COC(C)=O)[C@@H]5C[C@H](O)[C@]43C)[C@@H]12`, the viability in data set [1] came to 103%. Also, in data set [2], the IC50 worked out at 1.55 µM.

Turning to `C=C(C)[C@@H]1CC[C@]2(C(=O)O)CC[C@]3(C)[C@H](CC[C@@H]4[C@@]5(C)CC(=O)[C@H](O)C(C)(C)[C@@H]5C[C@H](O)[C@]43C)[C@@H]12`, in data set [1], the viability stood at 97.3%. Besides, the half-inhibitory concentration (IC50) in data set [2] was greater than 100 µM.

For `C=C(C)[C@@H]1CC[C@]2(C(=O)O)CC[C@]3(C)[C@H](C[C@H](O)[C@@H]4[C@@]5(C)CCC(=O)C(C)(C)[C@@H]5C[C@H](O)[C@]43C)[C@@H]12`, in data set [1], the viability stood at 88.4%. In data set [2], the half-inhibitory concentration (IC50) is greater than 100 µM.

Turning to `CC(=O)OC[C@H](C)[C@@H]1CC[C@]2(C(=O)O)CC[C@]3(C)[C@H](CC[C@@H]4[C@@]5(C)CCC(=O)C(C)(C)[C@@H]5C[C@H](O)[C@]43C)[C@@H]12`, the viability in data set [1] is 99.5%. Further, in data set [2], the IC50 was 61.2 µM.

`C=C(CO)[C@@H]1CC[C@]2(C(=O)O)CC[C@]3(C)[C@H](CC[C@@H]4[C@@]5(C)CCC(=O)C(C)(C)[C@@H]5C[C@H](O)[C@]43C)[C@@H]12`: in data set [1], the viability worked out at 103%. Moreover, the IC50 in data set [2] came to 11.1 µM.

Regarding `C=C(C)[C@@H]1C[C@@H](O)[C@]2(C(=O)O)CC[C@]3(C)[C@H](CC[C@@H]4[C@@]5(C)CCC(=O)C(C)(C)[C@@H]5C[C@H](O)[C@]43C)[C@@H]12`, the viability in data set [1] stood at 101%. For the same molecule, in data set [2], the concentration for half-maximal inhibition (IC50) came out at 37.2 µM.

Consider `C=C(C)[C@@H]1CC[C@]2(C(=O)O)C[C@H](O)[C@]3(C)[C@H](CC[C@@H]4[C@@]5(C)CCC(=O)C(C)(C)[C@@H]5C[C@H](O)[C@]43C)[C@@H]12`, for which the viability in data set [1] was found to be 101%. Also, in data set [2], the IC50 stood at 93.7 µM.

Turning to `C=C(COC(C)=O)[C@@H]1CC[C@]2(C(=O)O)C[C@H](O)[C@]3(C)[C@H](CC[C@@H]4[C@@]5(C)CCC(=O)C(C)(C)[C@@H]5CC[C@]43C)[C@@H]12`, in data set [1], the viability is 101%. Besides, in data set [2], the IC50 was determined as 76.6 µM.

In the case of `C=C(C)[C@@H]1CC[C@]2(C(=O)O)CC[C@]3(C)[C@H](CC[C@@H]4[C@@]5(C)CCC(=O)[C@@](C)(CO)[C@@H]5C[C@H](O)[C@]43C)[C@@H]12`, in data set [1], the viability was 110%. The IC50 in data set [2] was 15.6 µM.

`C=C(C)[C@@H]1CC[C@]2(C(=O)O)C[C@H](O)[C@]3(C)[C@H](C[C@@H](O)[C@@H]4[C@@]5(C)CCC(=O)C(C)(C)[C@@H]5CC[C@]43C)[C@@H]12`: the viability in data set [1] was determined as 103%. For the same molecule, in data set [2], the IC50 was greater than 100 µM.

With `C=C(C)[C@@H]1CC[C@]2(C(=O)O)C[C@H](O)[C@]3(C)[C@H](CC[C@@H]4[C@@]5(C)CCC(=O)[C@@](C)(CO)[C@@H]5C[C@H](O)[C@]43C)[C@@H]12`, the viability in data set [1] was determined as 105%. For the same molecule, in data set [2], the IC50 is 58.3 µM.

For the molecule `C=C(C)[C@@H]1CC[C@]2(C(=O)O)C[C@H](O)[C@]3(C)[C@H](CC[C@@H]4[C@@]5(C)CCC(=O)[C@@](C)(COC(C)=O)[C@@H]5CC[C@]43C)[C@@H]12`, the viability in data set [1] is 102%. In data set [2], the IC50 was 42.4 µM.

For the molecule `C=C(COC(C)=O)[C@@H]1CC[C@]2(C(=O)O)CC[C@]3(C)[C@H](CC[C@@H]4[C@@]5(C)CCC(=O)C(C)(C)[C@@H]5C[C@H](O)[C@]43C)[C@@H]12`, in data set [1], the viability came out at 109%. Besides, the IC50 in data set [2] amounted to 5.38 µM.

Take `C=C(CO)[C@@H]1CC[C@]2(C(=O)O)CC[C@]3(C)[C@H](CC[C@@H]4[C@@]5(C)CCC(=O)C(C)(C)[C@@H]5CC[C@]43C)[C@@H]12`: in data set [1], the viability came to 104%. Also, the IC50 in data set [2] was 35.1 µM.

Regarding `C=C(C)[C@@H]1CC[C@]2(C(=O)O[C@@H]3O[C@H](CO)[C@@H](O)[C@H](O)[C@H]3O)CC[C@]3(C)[C@H](CC[C@@H]4[C@@]5(C)CCC(=O)C(C)(C)[C@@H]5C[C@H](O)[C@]43C)[C@@H]12`, the viability in data set [1] is 101%. The IC50 in data set [2] came out at 4.69 µM.

`CC(=O)OC[C@@H](C)[C@@H]1CC[C@]2(C(=O)O)CC[C@]3(C)[C@H](CC[C@@H]4[C@@]5(C)CCC(=O)C(C)(C)[C@@H]5C[C@H](O)[C@]43C)[C@@H]12`: the viability in data set [1] is 98.8%. Besides, the half-inhibitory concentration (IC50) in data set [2] came to 66.3 µM.

Turning to `C=C(C)[C@@H]1CC[C@]2(C(=O)O)CC[C@]3(C)[C@H](CC[C@@H]4[C@@]5(C)CCC(=O)C(C)(C)[C@@H]5C[C@H](OC(C)=O)[C@]43C)[C@@H]12`, in data set [1], the viability came out at 102%. For the same molecule, the IC50 in data set [2] turned out to be 10.3 µM.

As for `C=C(C)[C@@H]1CC[C@]2(C(=O)O)CC[C@]3(C)[C@H](CC[C@@H]4[C@@]5(C)C[C@@H](O)C(=O)C(C)(C)[C@@H]5C[C@H](O)[C@]43C)[C@@H]12`, the viability in data set [1] is 106%. In addition, the IC50 in data set [2] turned out to be 64.8 µM.

For the molecule `C=C(COO)[C@@H]1CC[C@]2(C(=O)O)CC[C@]3(C)[C@H](CC[C@@H]4[C@@]5(C)CCC(=O)C(C)(C)[C@@H]5CC[C@]43C)[C@@H]12`, in data set [1], the viability amounted to 101%. Further, in data set [2], the IC50 came out at 24.8 µM.

Take `C=C(C)[C@@H]1CC[C@]2(C(=O)O)CC[C@]3(C)[C@H](CC[C@@H]4[C@@]5(C)CCC(=O)C(C)(C)[C@@H]5CC[C@]43C)[C@@H]12` [BETUNOLIC ACID]: in data set [1], the viability stood at 102%. Moreover, the IC50 in data set [2] is 60.7 µM.

As for `CNC(=N)NCCC[C@H](N)C(=O)O` [TILARGININE], the viability in data set [1] was 110%. For the same molecule, the IC50 in data set [2] came to 21.4 µM.
